SMILES strings stand for the structures.

The source of these data is US11091485B2, “Imidazo[1′,2′:1,6]pyrido[2,3-d]pyrimidine compound as protein kinase inhibitor” (SHENGKE PHARMACEUTICALS (JIANGSU) LTD., priority 2017, dated 2021).

The target in one assay is FLT3 (Homo sapiens (Human), UniProt P36888). The experiment in a line: Enzyme inhibition FLT3. The note with it: read-out: IC50 value of inhibition against FLT3. It counts as biochemical. How it is done:
(§1) In addition, the inhibitory activities of the compounds of the present disclosure against enzyme ABL1, FLT3 and PIM1 were also tested.

The next assay has as its target PIM1 (Homo sapiens (Human), UniProt P11309). The experiment in a line: Enzyme inhibition PIM1. The class given is biochemical. The note with it: read-out: IC50 value of inhibition against PIM1. The procedure:
as §1

A further assay concerns the target CDK4/Cyclin D1 (Homo sapiens (Human), UniProt P11802). The assay is described as follows: Biochemical kinase inhibition test, CDK4/Cyclin D1 (32P-ATP, Rb substrate). The note with it: recombinant CDK4/Cyclin D1; 10 μM ATP; read-out: CDK4/Cydin D1 IC50. How it is done: (§2) Potency determination of biochemical kinase inhibition test. Kinase activity test and IC50 determination. […] The kinase reaction was initiated by adding 1 μg (1.5 μM) of recombinant retinoblastoma protein, […] and 10μ Ci γ-32P-ATP. The reaction was incubated at 30° C. for 20 minutes, and was terminated by adding 2×Laemmli sample buffer, heated at 95° C. for three minutes, and the resulting solution was dissolved with 12% acrylamide SDS-PAGE and autoradiographed. A densitometer (Bio-Rad) was used to quantify the corresponding phosphorylated substrate protein bands. […] These reactions took place in the presence of 10 μM ATP.

For a further assay, the target named is CDK6/cyclin D1 (Homo sapiens (Human), UniProt Q00534). The experiment in a line: Biochemical kinase inhibition test, CDK6/cyclin D1 (similar method). The note with it: for IC50: CDK6/cyclin D1, 10 μM ATP, read-out: CDK6/Cyelin D1 IC50; for selectivity for CDK6/cyclin D1 relative to CDK4/cyclin D1: enzyme inhibitory activity, CDK6/cyclin D1 vs CDK4/cyclin D1. The procedure:
as §2

CDK4/Cyclin D1, sequence (P11802 whole entry): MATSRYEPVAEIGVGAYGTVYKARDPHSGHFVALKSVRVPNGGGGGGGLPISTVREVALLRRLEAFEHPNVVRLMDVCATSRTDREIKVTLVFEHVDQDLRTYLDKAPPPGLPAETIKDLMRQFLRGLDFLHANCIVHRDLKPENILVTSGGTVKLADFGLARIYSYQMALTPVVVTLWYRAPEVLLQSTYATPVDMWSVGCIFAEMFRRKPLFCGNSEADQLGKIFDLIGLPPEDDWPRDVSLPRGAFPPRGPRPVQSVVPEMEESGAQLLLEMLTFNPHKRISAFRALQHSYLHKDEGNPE
CDK4/Cyclin D1, sequence (P24385 whole entry partner): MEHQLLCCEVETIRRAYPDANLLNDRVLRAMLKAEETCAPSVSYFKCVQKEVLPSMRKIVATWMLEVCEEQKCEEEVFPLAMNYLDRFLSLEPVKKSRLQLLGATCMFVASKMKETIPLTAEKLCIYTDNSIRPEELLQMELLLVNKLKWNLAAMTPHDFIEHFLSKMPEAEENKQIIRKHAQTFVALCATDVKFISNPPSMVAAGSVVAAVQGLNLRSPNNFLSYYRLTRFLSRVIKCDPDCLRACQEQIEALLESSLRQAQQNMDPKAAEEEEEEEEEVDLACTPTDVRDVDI
PIM1, sequence (P11309 whole entry, species assumed): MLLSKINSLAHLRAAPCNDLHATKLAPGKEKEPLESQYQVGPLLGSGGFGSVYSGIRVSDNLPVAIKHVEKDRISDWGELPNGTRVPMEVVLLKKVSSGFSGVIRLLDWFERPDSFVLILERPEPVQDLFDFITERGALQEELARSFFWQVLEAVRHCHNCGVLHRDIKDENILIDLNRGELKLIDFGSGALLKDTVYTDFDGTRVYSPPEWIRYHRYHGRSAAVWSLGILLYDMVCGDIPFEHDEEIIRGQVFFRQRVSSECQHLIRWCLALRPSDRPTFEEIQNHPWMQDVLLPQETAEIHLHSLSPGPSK
FLT3, sequence (P36888 27-993, species assumed): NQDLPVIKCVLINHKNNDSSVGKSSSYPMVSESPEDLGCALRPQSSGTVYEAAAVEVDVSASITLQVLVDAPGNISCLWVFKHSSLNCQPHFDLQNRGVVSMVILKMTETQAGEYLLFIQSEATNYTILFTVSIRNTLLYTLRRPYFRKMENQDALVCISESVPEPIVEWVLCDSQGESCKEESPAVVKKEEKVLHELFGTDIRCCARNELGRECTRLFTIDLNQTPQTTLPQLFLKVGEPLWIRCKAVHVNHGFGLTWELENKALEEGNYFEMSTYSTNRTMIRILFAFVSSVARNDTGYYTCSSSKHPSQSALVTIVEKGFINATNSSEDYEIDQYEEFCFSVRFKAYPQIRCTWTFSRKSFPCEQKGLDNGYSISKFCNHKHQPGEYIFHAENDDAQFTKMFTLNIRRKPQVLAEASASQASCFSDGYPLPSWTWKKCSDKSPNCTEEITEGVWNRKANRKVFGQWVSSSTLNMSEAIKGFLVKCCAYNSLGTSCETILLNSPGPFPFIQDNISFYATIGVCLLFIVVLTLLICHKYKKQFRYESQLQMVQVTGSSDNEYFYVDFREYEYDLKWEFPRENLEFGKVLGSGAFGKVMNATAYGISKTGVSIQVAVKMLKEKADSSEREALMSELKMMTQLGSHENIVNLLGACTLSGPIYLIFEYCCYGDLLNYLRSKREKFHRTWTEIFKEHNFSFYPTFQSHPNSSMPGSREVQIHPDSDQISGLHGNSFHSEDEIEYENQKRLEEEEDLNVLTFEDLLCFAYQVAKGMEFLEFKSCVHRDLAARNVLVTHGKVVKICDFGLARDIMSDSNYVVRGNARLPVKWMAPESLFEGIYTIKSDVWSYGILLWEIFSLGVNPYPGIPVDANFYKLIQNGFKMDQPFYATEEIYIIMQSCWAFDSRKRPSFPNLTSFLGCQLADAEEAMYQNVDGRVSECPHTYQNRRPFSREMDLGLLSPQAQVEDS
CDK6/cyclin D1, sequence (Q00534 whole entry, species assumed): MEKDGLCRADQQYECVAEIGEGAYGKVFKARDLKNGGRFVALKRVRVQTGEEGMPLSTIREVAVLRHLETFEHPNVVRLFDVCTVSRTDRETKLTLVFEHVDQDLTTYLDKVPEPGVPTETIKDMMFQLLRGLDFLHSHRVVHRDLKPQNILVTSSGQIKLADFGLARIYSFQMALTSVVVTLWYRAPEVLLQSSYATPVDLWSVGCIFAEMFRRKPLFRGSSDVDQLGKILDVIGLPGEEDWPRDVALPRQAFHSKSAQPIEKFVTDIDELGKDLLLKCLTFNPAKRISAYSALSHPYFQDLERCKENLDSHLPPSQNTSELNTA
CDK6/cyclin D1, sequence (P24385 whole entry partner, species assumed): as the sequence (P24385 whole entry partner) above

As to `CC(C)c1cnc2ccc3cnc(Nc4ccc(N5CCNCC5)cn4)nc3n12.Cl` [Compound I-1, 9-Isopropyl-N-(5-(piperazin-1-yl)pyridin-2-yl)imidazo[1′,2′:1,6]pyrido[2,3-d]pyrimidin-2-amine hydrochloride], the IC50 on FLT3 was less than 5 nM; at PIM1 it was less than 50 nM; at CDK4/Cyclin D1 it was 1 to 5 nM; on CDK6/cyclin D1, less than 1 nM. Besides, the “selectivity for CDK6/cyclin D1 relative to CDK4/cyclin D1” value at CDK6/cyclin D1 is “more than 5 times”.
Take `CC(C)c1cnc2ccc3cnc(Nc4ccc(N5CCN(C)CC5)cn4)nc3n12` [Compound I-2, 9-Isopropyl-N-(5-(4-methylpiperazin-1-yl)pyridin-2-yl)imidazo[1′,2′:1,6]pyrido[2,3-d]pyrimidin-2-amine]: the IC50 on CDK4/Cyclin D1 and on CDK6/cyclin D1 was less than 1 nM each time.
For `Cc1cc(Nc2ncc3ccc4ncc(C(C)C)n4c3n2)ncc1N1CCN(C)CC1` [Compound I-3], the IC50 at CDK4/Cyclin D1 and on CDK6/cyclin D1 was 5 to 10 nM each time.
On to `Cc1nc(Nc2ncc3ccc4ncc(C(C)C)n4c3n2)ccc1N1CCN(C)CC1` [Compound I-4], for which the IC50 at CDK4/Cyclin D1 and on CDK6/cyclin D1 was 5 to 10 nM each time.
For `CCN1CCN(c2ccc(Nc3ncc4ccc5ncc(C(C)C)n5c4n3)nc2)CC1` [Compound I-5], the IC50 on CDK4/Cyclin D1 and at CDK6/cyclin D1 was less than 1 nM each time.
As to `CCN1CCN(c2cnc(Nc3ncc4ccc5ncc(C(C)C)n5c4n3)cc2C)CC1` [Compound I-6], at CDK4/Cyclin D1, the IC50 was 10 to 20 nM. For the same compound, on CDK6/cyclin D1, the IC50 was 5 to 10 nM and the “selectivity for CDK6/cyclin D1 relative to CDK4/cyclin D1” value is listed as 2-3 times.
On the same counts, the results for `CCN1CCN(c2ccc(Nc3ncc4ccc5ncc(C(C)C)n5c4n3)nc2C)CC1` [Compound I-7] are 5 to 10 nM, 5 to 10 nM and 2-3 times.
With `Cc1cc(Nc2ncc3ccc4ncc(C(C)C)n4c3n2)ncc1N1CCNCC1.Cl` [Compound I-8], the IC50 was less than 5 nM at FLT3, less than 50 nM on PIM1, 1 to 5 nM on CDK4/Cyclin D1 and less than 1 nM on CDK6/cyclin D1. At CDK6/cyclin D1, the “selectivity for CDK6/cyclin D1 relative to CDK4/cyclin D1” value is reported as “more than 5 times”.
On the same counts, the results for `Cc1nc(Nc2ncc3ccc4ncc(C(C)C)n4c3n2)ccc1N1CCNCC1.Cl` [Compound I-9] are less than 5 nM, less than 50 nM, 5 to 10 nM, less than 1 nM and “more than 10 times”.
`CC(C)c1cnc2ccc3cnc(Nc4ccc(N5CCN[C@@H](C)C5)cn4)nc3n12` [Compound I-10]: the IC50 on CDK4/Cyclin D1 and at CDK6/cyclin D1 was 5 to 10 nM in each case.
Regarding `CC(C)c1cnc2ccc3cnc(Nc4ccc(N5CCNC(C)(C)C5)cn4)nc3n12` [Compound I-11], the IC50 at CDK4/Cyclin D1 and at CDK6/cyclin D1 was 5 to 10 nM in each case.
`CC(C)c1cnc2ccc3cnc(Nc4ccc(N5C[C@@H](C)N[C@@H](C)C5)cn4)nc3n12` [Compound I-12]: the IC50 at CDK4/Cyclin D1 and at CDK6/cyclin D1 was 5 to 10 nM in each case.
Take `CC(C)c1cnc2ccc3cnc(Nc4cc(F)c(N5CCNCC5)cn4)nc3n12.Cl` [Compound I-13]: the IC50 on CDK4/Cyclin D1 was 10 to 20 nM. Further, on CDK6/cyclin D1, the IC50 was 5 to 10 nM and the “selectivity for CDK6/cyclin D1 relative to CDK4/cyclin D1” value is recorded as 2-3 times.
On the same counts, the results for `CC(C)c1cnc2ccc3cnc(Nc4ccc(N5CCNCC5)c(F)n4)nc3n12.Cl` [Compound I-14] are 20 to 50 nM, 10 to 20 nM and 2-3 times.
Turning to `CC(C)c1cnc2ccc3cnc(Nc4ccc(N5CCCNCC5)cn4)nc3n12` [Compound I-15], the IC50 on CDK4/Cyclin D1 and on CDK6/cyclin D1 was 20 to 50 nM throughout.
Consider `CC(C)c1cnc2ccc3cnc(Nc4ccc(N5CCCCC5)cn4)nc3n12` [Compound I-16], for which the IC50 at CDK4/Cyclin D1 and at CDK6/cyclin D1 was 20 to 50 nM throughout.
As for `CC(C)c1cnc2ccc3cnc(Nc4ccc(N5CCOCC5)cn4)nc3n12` [Compound I-17], the IC50 at FLT3 was less than 5 nM; on PIM1, less than 50 nM; at CDK4/Cyclin D1, 5 to 10 nM; at CDK6/cyclin D1, less than 1 nM. In addition, the “selectivity for CDK6/cyclin D1 relative to CDK4/cyclin D1” value at CDK6/cyclin D1 is recorded as “more than 10 times”.
For the compound `Cc1cc(Nc2ncc3ccc4ncc(C(C)C)n4c3n2)ncc1N1CCOCC1` [Compound I-18], the IC50 is less than 5 nM on FLT3, less than 50 nM at PIM1, 10 to 20 nM on CDK4/Cyclin D1 and 1 to 5 nM at CDK6/cyclin D1. For the same compound, the “selectivity for CDK6/cyclin D1 relative to CDK4/cyclin D1” value at CDK6/cyclin D1 is listed as “about 4 times”.
With `Cc1nc(Nc2ncc3ccc4ncc(C(C)C)n4c3n2)ccc1N1CCOCC1` [Compound I-19], the IC50 on CDK4/Cyclin D1 and on CDK6/cyclin D1 was 5 to 10 nM each time.
For the compound `CC1CN(c2ccc(Nc3ncc4ccc5ncc(C(C)C)n5c4n3)nc2)CCO1` (stereo not drawn) [Compound I-20], the IC50 on CDK4/Cyclin D1 and at CDK6/cyclin D1 was 5 to 10 nM throughout.
For `CC(C)c1cnc2ccc3cnc(Nc4ccc(N5C[C@@H](C)O[C@@H](C)C5)cn4)nc3n12` [Compound I-21], the IC50 on CDK4/Cyclin D1 fell in the range of 20 to 50 nM. In addition, at CDK6/cyclin D1, the IC50 was 10 to 20 nM and the “selectivity for CDK6/cyclin D1 relative to CDK4/cyclin D1” value is given as 2-3 times.
As for `CC(C)c1cnc2ccc3cnc(Nc4ccc(N5CCC6(CCNCC6)C5)cn4)nc3n12` [Compound I-22], the IC50 at CDK4/Cyclin D1 and on CDK6/cyclin D1 was 20 to 50 nM throughout.
Consider `CC(C)c1cnc2ccc3cnc(Nc4ccc(N5CCC6(CNC6)C5)cn4)nc3n12` [Compound I-23], for which the IC50 on CDK4/Cyclin D1 and at CDK6/cyclin D1 was 20 to 50 nM throughout.
Take `CC(C)c1cnc2ccc3cnc(Nc4ccc(N5CC6(CNC6)C5)cn4)nc3n12` [Compound I-24]: the IC50 at CDK4/Cyclin D1 and on CDK6/cyclin D1 was 20 to 50 nM in each case.
Consider `CC(C)c1cnc2ccc3cnc(Nc4ccc(N5CCC6(CC5)CNC6)cn4)nc3n12` [Compound I-25], for which the IC50 on CDK4/Cyclin D1 and on CDK6/cyclin D1 was 20 to 50 nM each time.
As to `CC(C)c1cnc2ccc3cnc(Nc4ccc(N5CC6(CCNCC6)C5)cn4)nc3n12` [Compound I-26], the IC50 at CDK4/Cyclin D1 and at CDK6/cyclin D1 was 20 to 50 nM throughout.
`CC(C)c1cnc2ccc3cnc(Nc4ccc(N5CCNCC5)cc4F)nc3n12` [Compound I-27]: the IC50 on CDK4/Cyclin D1 and on CDK6/cyclin D1 was 50 to 100 nM each time.
As to `COc1cc(OCCN(C)C)ccc1Nc1ncc2ccc3ncc(C(C)C)n3c2n1` [Compound I-28], the IC50 on CDK4/Cyclin D1 and at CDK6/cyclin D1 was 50 to 100 nM each time.
As to `COc1cc(OC2CCN(C)CC2)ccc1Nc1ncc2ccc3ncc(C(C)C)n3c2n1` [Compound I-29], the IC50 at CDK4/Cyclin D1 and on CDK6/cyclin D1 was 50 to 100 nM throughout.
For the compound `COc1ccc2cc(Nc3ncc4ccc5ncc(C(C)C)n5c4n3)ccc2n1` [Compound I-30], the IC50 on CDK4/Cyclin D1 and at CDK6/cyclin D1 was 50 to 100 nM throughout.
Consider `Cl.c1cc(Nc2ncc3ccc4ncc(C5CCCC5)n4c3n2)ncc1N1CCNCC1` [Compound I-31], for which the IC50 on FLT3 was less than 5 nM; at PIM1 it was less than 50 nM; on CDK4/Cyclin D1 it was 1 to 5 nM; at CDK6/cyclin D1 it was less than 1 nM. The “selectivity for CDK6/cyclin D1 relative to CDK4/cyclin D1” value at CDK6/cyclin D1 is on record as “more than 5 times”.
For the compound `CCN1CCN(c2cnc(Nc3ncc4ccc5ncc(C6CCCC6)n5c4n3)cc2C)CC1` [Compound I-32], the IC50 on CDK4/Cyclin D1 and on CDK6/cyclin D1 was 5 to 10 nM in each case.
On to `Cc1cc(Nc2ncc3ccc4ncc(C5CCCC5)n4c3n2)ncc1N1CCNCC1.Cl` [Compound I-33], for which the IC50 was less than 5 nM at FLT3, less than 50 nM on PIM1, 5 to 10 nM on CDK4/Cyclin D1 and less than 1 nM at CDK6/cyclin D1. Besides, the “selectivity for CDK6/cyclin D1 relative to CDK4/cyclin D1” value on CDK6/cyclin D1 is “more than 10 times”.
Regarding `Cc1nc(Nc2ncc3ccc4ncc(C5CCCC5)n4c3n2)ccc1N1CCNCC1.Cl` [Compound I-34], the IC50 on FLT3 is less than 5 nM; at PIM1, less than 50 nM; on CDK4/Cyclin D1, 5 to 10 nM; at CDK6/cyclin D1 it was less than 1 nM. Moreover, the “selectivity for CDK6/cyclin D1 relative to CDK4/cyclin D1” value on CDK6/cyclin D1 is “more than 10 times”.
Regarding `C[C@@H]1CN(c2ccc(Nc3ncc4ccc5ncc(C6CCCC6)n5c4n3)nc2)C[C@H](C)N1` [Compound I-35], the IC50 at CDK4/Cyclin D1 and on CDK6/cyclin D1 was 5 to 10 nM each time.
With `Fc1cc(Nc2ncc3ccc4ncc(C5CCCC5)n4c3n2)ncc1N1CCNCC1` [Compound I-36], the IC50 at CDK4/Cyclin D1 and on CDK6/cyclin D1 was 10 to 20 nM in each case.
Take `Fc1nc(Nc2ncc3ccc4ncc(C5CCCC5)n4c3n2)ccc1N1CCNCC1` [Compound I-37]: the IC50 at CDK4/Cyclin D1 and on CDK6/cyclin D1 was 5 to 10 nM each time.
`Cc1cc(Nc2ncc3ccc4ncc(C5CCCC5)n4c3n2)ncc1N1CCOCC1` [Compound I-38]: the IC50 is less than 5 nM on FLT3, less than 50 nM at PIM1, 10 to 20 nM at CDK4/Cyclin D1 and 1 to 5 nM at CDK6/cyclin D1. The “selectivity for CDK6/cyclin D1 relative to CDK4/cyclin D1” value on CDK6/cyclin D1 is recorded as “about 4 times”.
`C[C@@H]1CN(c2ccc(Nc3ncc4ccc5ncc(C6CCCC6)n5c4n3)nc2)C[C@H](C)O1` [Compound I-39]: on CDK4/Cyclin D1, the IC50 was 20 to 50 nM. In addition, on CDK6/cyclin D1, the IC50 lay within 10 to 20 nM and the “selectivity for CDK6/cyclin D1 relative to CDK4/cyclin D1” value is listed as 2-3 times.
